Experimental data as given in patent publication US7012067B2, “Blood lipid ameliorant composition” (Sankyo Company, Limited, priority 2000, dated 2006).

Experiments:
Format in all cases: in vivo
CPK = assay: Serum CPK levels in dogs (UV-rate methods); settings: beagle dogs, oral once daily, relative to pre-dosing level (100), mean of 5, simvastatin 1 mg/kg, ascorbic acid 500 mg/kg
Description: (§1) Beagle dogs aged 5 months were purchased from Covance Research Products Inc. and used after 1 month of quarantine and acclimatisaton breeding.
(§2) The required amounts of simvastatin or each component of the combination drug calculated from the body weight of each dog were weighed and filled in a gelatin capsule (½ ounce) purchased from TORPAC Inc. Capsules filled with simvastatin were stocked in a refrigerator and those filled with combination drugs stocked at room temperature until use.
(§3) The combination drugs were filled in identical gelatin capsules.
(§4) Simvastatin or combination drug capsules were forcibly orally administered to each of the test animals once daily between 9:00 and 12:30. Animals were fasted for 2 or 3 hr prior to administration of the capsules.
(§5) The administration period was 11 successive days.
(§6) Blood (10 mL) was collected from the superficial radial vein 2 or 1 weeks prior to administration and 4, 8, and 12 days after administration was started. Animals were fasted for approximately 18 hr prior to blood collection. Collected blood was placed in a test tube and left at room temperature for 0.5-1 hr, before being centrifuged (3,000 rpm for 10 min). The obtained serum was used for assays of blood levels of lipid peroxides, total cholesterol, triglycerides, free fatty acids, GOT, and CPK according to Yagi's methods, CEH-COD-POD methods, GK-GPO-POD methods, ACS-ACOD methods, UV-rate methods, and UV-rate methods, respectively.
(§7) All these values in dogs treated with one of the drugs described above were converted to their relative ratios against their averaged pre-dosing levels (100) determined 2 and 1 weeks prior to drug administration. The averaged value in each group was obtained from 5 animals per group.

blood free fatty acids = assay: Blood free fatty acid levels in dogs (ACS-ACOD methods); settings: beagle dogs, oral once daily, relative to pre-dosing level (100), mean of 5, simvastatin 1 mg/kg
Description: as §1, §2, §3, §4, §5
as §6, with “respectively. (For ACS-ACOD (Acyl-CoA synthetase-Acyl-CoA oxidase peroxidase) methods, CEH-COD-POD (Cholesterol ester hydrolase-Cholesteroloxidase-Peroxidase) methods, Yagis methods and GK-GPO-POD (Glycerokinase-Glycerolphosphateoxidase-Peroxidase)methods, see: Kanai's Manual of Clinical Laboratory Medicine; 31st Edition (September 1998), Kanehara & Co., Ltd.)” for “respectively.”
(§8) All these levels were determined using a fluorometer (Hitachi, Ltd., F3000), a full automatic analyzer (Monarch, Instrumentation Laboratory), and an automatic analyzer (7170, Hitachi, Ltd.).
as §7

blood lipid peroxides = assay: Blood lipid peroxide levels in dogs (Yagi's methods); settings: beagle dogs, oral once daily, relative to pre-dosing level (100), mean of 5, simvastatin 1 mg/kg
Description: as §1, §2, §3, §4, §5
as §6, with “respectively. (For ACS-ACOD (Acyl-CoA synthetase-Acyl-CoA oxidase peroxidase) methods, CEH-COD-POD (Cholesterol ester hydrolase-Cholesteroloxidase-Peroxidase) methods, Yagis methods and GK-GPO-POD (Glycerokinase-Glycerolphosphateoxidase-Peroxidase)methods, see: Kanai's Manual of Clinical Laboratory Medicine; 31st Edition (September 1998), Kanehara & Co., Ltd.)” for “respectively.”
as §8, §7

blood total cholesterol = assay: Blood total cholesterol levels in dogs (CEH-COD-POD methods); settings: beagle dogs, oral once daily, relative to pre-dosing level (100), mean of 5, simvastatin 1 mg/kg, taurine 1000 mg/kg
Description: as §1, §2, §3, §4, §5
as §6, with “respectively. (For ACS-ACOD (Acyl-CoA synthetase-Acyl-CoA oxidase peroxidase) methods, CEH-COD-POD (Cholesterol ester hydrolase-Cholesteroloxidase-Peroxidase) methods, Yagis methods and GK-GPO-POD (Glycerokinase-Glycerolphosphateoxidase-Peroxidase)methods, see: Kanai's Manual of Clinical Laboratory Medicine; 31st Edition (September 1998), Kanehara & Co., Ltd.)” for “respectively.”
as §8, §7

blood triglycerides = assay: Blood triglyceride levels in dogs (GK-GPO-POD methods); settings: beagle dogs, oral once daily, relative to pre-dosing level (100), mean of 5
Description: as §1, §2, §3, §4, §5
as §6, with “respectively. (For ACS-ACOD (Acyl-CoA synthetase-Acyl-CoA oxidase peroxidase) methods, CEH-COD-POD (Cholesterol ester hydrolase-Cholesteroloxidase-Peroxidase) methods, Yagis methods and GK-GPO-POD (Glycerokinase-Glycerolphosphateoxidase-Peroxidase)methods, see: Kanai's Manual of Clinical Laboratory Medicine; 31st Edition (September 1998), Kanehara & Co., Ltd.)” for “respectively.”
as §8, §7

GOT = assay: Serum GOT levels in dogs (UV-rate methods); settings: beagle dogs, oral once daily, relative to pre-dosing level (100), mean of 5, simvastatin 1 mg/kg, Tocoph 300 mg/kg
Description: as §1, §2, §3, §4, §5, §6, §7

[1] = simvastatin 1 mg/kg (dose cell of simvastatin alone empty), taurine 1000 mg/kg
[2] = simvastatin 1 mg/kg, Tocoph 300 mg/kg
[3] = simvastatin 1 mg/kg, pantethine 300 mg/kg

CPK Levels after administration, 4 days (CPK)	CPK Levels after administration, 8 days (CPK)	CPK Levels after administration, 12 days (CPK)	SMILES	Blood FFA Levels after administration, 4 days (blood free fatty acids; ascorbic acid 500 mg/kg)	Blood FFA Levels after administration, 8 days (blood free fatty acids; ascorbic acid 500 mg/kg)	Blood FFA Levels after administration, 12 days (blood free fatty acids; ascorbic acid 500 mg/kg)	Blood Lipid Peroxide Levels after administration, 4 days (blood lipid peroxides; ascorbic acid 500 mg/kg)	Blood Lipid Peroxide Levels after administration, 8 days (blood lipid peroxides; ascorbic acid 500 mg/kg)	Blood Lipid Peroxide Levels after administration, 12 days (blood lipid peroxides; ascorbic acid 500 mg/kg)	Blood FFA Levels after administration, 4 days (blood free fatty acids; RFVb 200 mg/kg)	Blood FFA Levels after administration, 8 days (blood free fatty acids; RFVb 200 mg/kg)	Blood FFA Levels after administration, 12 days (blood free fatty acids; RFVb 200 mg/kg)	Blood Lipid Peroxide Levels after administration, 4 days (blood lipid peroxides; RFVb 200 mg/kg)	Blood Lipid Peroxide Levels after administration, 8 days (blood lipid peroxides; RFVb 200 mg/kg)	Blood Lipid Peroxide Levels after administration, 12 days (blood lipid peroxides; RFVb 200 mg/kg)	Blood Total Cholesterol Levels after administration, 4 days (blood total cholesterol)	Blood Total Cholesterol Levels after administration, 8 days (blood total cholesterol)	Blood Total Cholesterol Levels after administration, 12 days (blood total cholesterol)	Blood Triglyceride Levels after administration, 4 days (blood triglycerides; [1])	Blood Triglyceride Levels after administration, 4 days (blood triglycerides; [2])	also measured
98.3	95.1	91.5	O=C1O[C@H]([C@@H](O)CO)C(O)=C1O [Ascorbic acid, ascorbic acid]	87.4	109.6	97.8	87.6	89.9	94.4												
			CCCC(=O)OC[C@@H](OC(=O)CCC)[C@@H](OC(=O)CCC)[C@H](Cn1c2nc(=O)[nH]c(=O)c-2nc2cc(C)c(C)cc21)OC(=O)CCC [RFVb, riboflavin butyrate]							97.6	101.2	92.9	88.9	101.0	80.8						
94.5	99.4	91.0	CCC(C)(C)C(=O)O[C@H]1C[C@@H](C)C=C2C=C[C@H](C)[C@H](CC[C@@H]3C[C@@H](O)CC(=O)O3)[C@H]21 [Simvastatin, (+)-(1S,3R,7S,8S,8aR)-1,2,3,7,8,8a-hexahydro-3,7-dimethyl-8-[2-[(2R4R )-tetrahydro-4-hydroxy-6-oxo-2H-pyran-2-yl]ethyl]-1-naphthyl 2,2-dimethylbutanoate]	93.8	99.3	97.0	96.2	86.4	91.0	93.8	99.3	97.0	96.2	86.4	91.0	102.1	93.2	86.6	97.6	96.2	Blood Triglyceride Levels after administration, 4 days (blood triglycerides; [3]): 97.6; Blood Triglyceride Levels after administration, 8 days (blood triglycerides; [1]): 88.9; Blood Triglyceride Levels after administration, 8 days (blood triglycerides; [2]): 86.4; Blood Triglyceride Levels after administration, 8 days (blood triglycerides; [3]): 88.9; Blood Triglyceride Levels after administration, 12 days (blood triglycerides; [1]): 89.3; Blood Triglyceride Levels after administration, 12 days (blood triglycerides; [2]): 91.0; Blood Triglyceride Levels after administration, 12 days (blood triglycerides; [3]): 89.3; GOT Levels after administration, 4 days (GOT): 98.1; GOT Levels after administration, 8 days (GOT): 93.9; GOT Levels after administration, 12 days (GOT): 100.4; Blood FFA Levels after administration, 4 days (blood free fatty acids; Tocoph 300 mg/kg): 93.8; Blood FFA Levels after administration, 8 days (blood free fatty acids; Tocoph 300 mg/kg): 99.3; Blood FFA Levels after administration, 12 days (blood free fatty acids; Tocoph 300 mg/kg): 97.0; Blood Lipid Peroxide Levels after administration, 4 days (blood lipid peroxides; pantethine 300 mg/kg): 96.2; Blood Lipid Peroxide Levels after administration, 4 days (blood lipid peroxides; taurine 1000 mg/kg): 96.2; Blood Lipid Peroxide Levels after administration, 8 days (blood lipid peroxides; pantethine 300 mg/kg): 86.4; Blood Lipid Peroxide Levels after administration, 8 days (blood lipid peroxides; taurine 1000 mg/kg): 86.4; Blood Lipid Peroxide Levels after administration, 12 days (blood lipid peroxides; pantethine 300 mg/kg): 91.0; Blood Lipid Peroxide Levels after administration, 12 days (blood lipid peroxides; taurine 1000 mg/kg): 91.0
			NCCS(=O)(=O)O [Taurine, 2-aminoethanesulfonic acid]													95.9	90.2	87.2	98.6		Blood Triglyceride Levels after administration, 8 days (blood triglycerides; [1]): 95.8; Blood Triglyceride Levels after administration, 12 days (blood triglycerides; [1]): 80.8; Blood Lipid Peroxide Levels after administration, 4 days (blood lipid peroxides; taurine 1000 mg/kg): 95.8; Blood Lipid Peroxide Levels after administration, 8 days (blood lipid peroxides; taurine 1000 mg/kg): 93.8; Blood Lipid Peroxide Levels after administration, 12 days (blood lipid peroxides; taurine 1000 mg/kg): 87.5
			CC(=O)Oc1c(C)c(C)c2c(c1C)CC[C@@](C)(CCC[C@H](C)CCC[C@H](C)CCCC(C)C)O2 [Tocoph, d-α-tocopherol acetate]																	106.3	Blood Triglyceride Levels after administration, 8 days (blood triglycerides; [2]): 119.0; Blood Triglyceride Levels after administration, 12 days (blood triglycerides; [2]): 75.9; GOT Levels after administration, 4 days (GOT): 114.9; GOT Levels after administration, 8 days (GOT): 139.7; GOT Levels after administration, 12 days (GOT): 109.1; Blood FFA Levels after administration, 4 days (blood free fatty acids; Tocoph 300 mg/kg): 115.4; Blood FFA Levels after administration, 8 days (blood free fatty acids; Tocoph 300 mg/kg): 103.1; Blood FFA Levels after administration, 12 days (blood free fatty acids; Tocoph 300 mg/kg): 86.2
